One experiment concerns loricrin gene. The experiment in a line: Promoting expression of CE-forming-related factor: loricrin gene, quantitative real-time PCR. It counts as cell-based, human. The note with it: SVHK cells, 1 μM, 48 hours; standardized to GAPDH; purified water control 1.00. How it is done: (§1) Loricrin, involucrin, and transglutaminase-1 are known as CE-forming-related factors. Here, effect of an inositol derivative on promoting expression of CE-forming-related factors was examined by using human epidermal cells. Human epidermal cells (SVHK cells) which were established from introduction of SV40 gene into human epidermal cells, were seeded on a plastic petri dish at a seeding density of 10,000 cells/cm^2 and cultured for 24 hours in Dulbecco's Modified Eagle's Medium (DMEM, manufactured by Sigma-Aldrich Co. LLC.) containing 10% fetal bovine serum. […] Next, quantitative real-time PCR was performed using this cDNA as a template, and the expression levels of loricrin gene, involucrin gene, and transglutaminase-1 (TG-1) gene in SVHK cells of each group were quantified, respectively. In addition, the expression level of glyceraldehyde-3-phosphate dehydrogenase (GAPDH) which is a housekeeping gene in which variation is not observed in the expression by adding a compound, as an internal standard gene, was quantified, and based on the expression levels of GAPDH gene in SVHK cells of each group, the expression levels of loricrin gene, involucrin gene, and TG-1 gene were standardized. […]
For orientation: Real-time PCR tracks product formation cycle by cycle.

For the next experiment, the system named is involucrin gene. The experiment in a line: Promoting expression of CE-forming-related factor: involucrin gene, quantitative real-time PCR. It counts as cell-based, human. The note with it: SVHK cells, 1 μM, 48 hours; standardized to GAPDH; purified water control 1.00. The protocol:
as §1

Experiment [1] deals with transglutaminase-1 (TG-1) gene. The experiment can be described thus: Promoting expression of CE-forming-related factor: transglutaminase-1 (TG-1) gene, quantitative real-time PCR. It counts as cell-based, human. The note with it: SVHK cells, 1 μM, 48 hours; standardized to GAPDH; purified water control 1.00. The protocol:
as §1

The subject of experiment [2] is Normal human epidermal keratinocytes (NHEK cell). The experiment can be described thus: Test for evaluating CE-forming ability. It counts as cell-based. The settings on record: NHEK cells, 1.8 mM Ca2+ medium, 1 μM, four days; purified water control 100. How it is done:
Normal human epidermal keratinocytes (NHEK cell manufactured by KURABO INDUSTRIES LTD.) were seeded on a 24 well plate at 1×10^5 cells/cm^2 and cultured at 37° C. under 5% CO2 to reach confluence. As a medium of NHEK cells, HuMedia-KG2 (product name, manufactured by KURABO INDUSTRIES LTD.) was used. After that, the medium was replaced to HuMedia-KG2 medium containing 1.8 mM Ca2+, the inositol derivative dissolved in purified water of Example 2 was added to the final concentration of 1 μM, and culturing was further performed for four days. As for a control, in place of the inositol derivative, the same amount of purified water was added to NHEK cells, and the cells were cultured in the same manner as above. In addition, for comparison, myo-inositol dissolved in purified water was added to NHEK cells in place of the inositol derivative, and the cells were cultured in the same manner as above. After four days of culturing, cells of each group were collected, removed of the supernatant, added with 2% sodium dodecyl sulfate (SDS)-20 mM dithiothreitol (DTT), and heated at 100° C. for 15 minutes. Next, the cells were added with 1% acetic acid-50% ethanol, centrifuged (at 15,000 rpm for five minutes), and removed of the supernatant. Next, the cells were added with 10 mM Tris-HCl-1 mM EDTA and observed with a microscope, and an amount of CE formation was counted. […]

The test system of a further experiment is AQP3 gene. The experiment in a line: Promoting effect on AQP3 expression, quantitative real-time PCR. It counts as cell-based, human. The settings on record: SVHK cells, 1 μM, 48 hours; standardized to GAPDH; purified water control 1.00. The protocol: (§2) Human epidermal cells (SVHK cells) which were established from introduction of SV40 gene into human epidermal cells, were seeded on a plastic petri dish at a seeding density of 10,000 cells/cm^2 and cultured for 24 hours in Dulbecco's Modified Eagle's Medium (DMEM, manufactured by Sigma-Aldrich Co. LLC.) containing 10% fetal bovine serum. Next, to the medium of SVHK cells, the inositol derivatives dissolved in purified water of Examples 1 to 6 and Comparative Example 1 were added to the final concentration of 1 μM, and culturing was further performed for 48 hours. As for a control, in place of the inositol derivative, the same amount of purified water was added to SVHK cells, and the cells were cultured in the same manner as above. […] Next, quantitative real-time PCR was performed using this cDNA as a template, and the expression levels of AQP3 gene in SVHK cells of each group were quantified. In addition, the expression level of glyceraldehyde-3-phosphate dehydrogenase (GAPDH) which is a housekeeping gene in which variation is not observed in the expression by adding a compound, as an internal standard gene, was quantified, and based on the expression levels of GAPDH gene in SVHK cells of each group, the expression levels of AQP3 gene were standardized. […]

A further experiment deals with SPT1 gene. The experiment in a line: Promoting effect on serine palmitoyltransferase expression: SPT1 gene. It counts as cell-based, human. The settings on record: SVHK cells, 10 μM, 48 hours; standardized to GAPDH; purified water control 1.00. How it is done:
(§3) Serine palmitoyltransferase (SPT) is known as a rate-limiting enzyme for ceramides synthesis. Here, effect of an inositol derivative on promoting SPT gene expression was examined by using human epidermal cells. Human epidermal cells (SVHK cells) which were established from introduction of SV40 gene into human epidermal cells, were seeded on a plastic petri dish at a seeding density of 10,000 cells/cm^2 and cultured for 24 hours in Dulbecco's Modified Eagle's Medium (DMEM, manufactured by Sigma-Aldrich Co. LLC.) containing 10% fetal bovine serum. […] Next, quantitative real-time PCR was performed using this cDNA as a template, and the expression levels of SPT gene in SVHK cells of each group were quantified. More specifically, the expression levels of SPT1, SPT2, and SPT3 genes which are subunits of SPT were quantified. In addition, the expression level of glyceraldehyde-3-phosphate dehydrogenase (GAPDH) which is a housekeeping gene in which variation is not observed in the expression by adding a compound, as an internal standard gene, was quantified, and based on the expression levels of GAPDH gene in SVHK cells of each group, the expression levels of SPT1, SPT2, and SPT3 genes were standardized. […]

The next experiment concerns SPT2 gene. The experiment can be described thus: Promoting effect on serine palmitoyltransferase expression: SPT2 gene. It counts as cell-based, human. The note with it: SVHK cells, 10 μM, 48 hours; standardized to GAPDH; purified water control 1.00. The protocol: as §3
The next experiment relates to SPT3 gene. The experiment in a line: Promoting effect on serine palmitoyltransferase expression: SPT3 gene. It counts as cell-based, human. The note with it: SVHK cells, 10 μM, 48 hours; standardized to GAPDH; purified water control 1.00. The protocol:
as §3

The subject of a further experiment is filaggrin gene. The experiment can be described thus: Promoting effect on filaggrin gene expression, quantitative real-time PCR. It counts as cell-based, human. The note with it: SVHK cells, 10 μM, 48 hours; standardized to GAPDH; purified water control 1.00. The protocol:
as §2, with “Effect of an inositol derivative on promoting filaggrin gene expression was examined by using human epidermal cells. Human epidermal” for “Human epidermal”, “concentration of 10 μM, and” for “concentration of 1 μM, and”, “levels of filaggrin gene in” for “levels of AQP3 gene in”, “levels of filaggrin gene were” for “levels of AQP3 gene were”

On to `O[C@H]1[C@H](O)[C@@H](O)[C@H](O)[C@@H](O)[C@H]1O` [Myo-inositol, myo-inositol], for which, in the experiment on loricrin gene, the “Expression levels of gene (relative value) lorierin” value worked out at 0.39. Besides, in the experiment with involucrin gene, the “Expression levels of gene (relative value) involucrin” value was found to be 2.42. The “Expression levels of gene (relative value) TG-1” value in [1] was 1.96. For the same compound, the “Amount of CE formation (relative value)” value in experiment [2] is on record as 123. The “Expression levels of AQP3 gene (relative value)” value with AQP3 gene amounted to 0.83. The “Expression levels of gene (relative value) SPT1” value with SPT1 gene turned out to be 2.01. Besides, the “Expression levels of gene (relative value) SPT2” value in the experiment with SPT2 gene was 2.49. Besides, in the experiment with SPT3 gene, the “Expression levels of gene (relative value) SPT3” value turned out to be 1.64. Further, the “Expression levels of filaggrin gene (relative value)” value in the experiment with filaggrin gene stood at 5.94.
